Experiment [1] deals with T1, 5-LO (Homo sapiens, UniProt P09917).
T1 construct: incubating a test compound with heparinised human blood; endogenous in cells; host or cells: leukocytes in heparinised human whole blood
T1 sequence (P09917 1-674): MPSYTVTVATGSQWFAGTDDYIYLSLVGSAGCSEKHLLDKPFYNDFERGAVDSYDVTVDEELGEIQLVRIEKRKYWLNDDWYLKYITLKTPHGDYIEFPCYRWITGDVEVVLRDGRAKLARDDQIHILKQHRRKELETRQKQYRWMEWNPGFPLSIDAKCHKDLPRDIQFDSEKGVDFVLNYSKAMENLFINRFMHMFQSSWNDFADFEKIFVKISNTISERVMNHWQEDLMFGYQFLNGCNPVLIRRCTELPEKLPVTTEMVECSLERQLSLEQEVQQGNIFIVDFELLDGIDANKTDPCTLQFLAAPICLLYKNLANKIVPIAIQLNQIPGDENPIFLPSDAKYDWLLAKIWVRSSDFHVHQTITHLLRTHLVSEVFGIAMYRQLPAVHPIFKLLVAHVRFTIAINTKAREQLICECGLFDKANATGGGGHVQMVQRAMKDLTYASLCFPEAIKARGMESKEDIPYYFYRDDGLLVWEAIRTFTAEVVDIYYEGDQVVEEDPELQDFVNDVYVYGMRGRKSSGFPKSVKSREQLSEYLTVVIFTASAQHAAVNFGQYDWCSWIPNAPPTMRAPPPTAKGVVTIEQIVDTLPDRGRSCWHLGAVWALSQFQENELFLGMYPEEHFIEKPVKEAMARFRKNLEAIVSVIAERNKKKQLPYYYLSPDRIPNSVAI
Description: Test b) heparinised human blood challenged with A23187, LTB4 radioimmunoassay. Type of experiment: cell-based.
Description: b) An in vitro assay system involving incubating a test compound with heparinised human blood, prior to challenge with the calcium ionophore A23187 and then indirectly measuring the inhibitory effects on 5-LO by assaying the amount of LTB4 using the specific radioimmunoassay described by Carey and Forder (F. Carey and R. A. Forder, Brit. […] This test provides an indication of the effects of a test compound against 5-LO and also cyclooxygenase in the presence of blood cells and proteins. It permits the selectivity of the inhibitory effect on 5-LO or cyclooxygenase to be assessed.

Experiment [2] deals with T2, 5-LO (Rattus norvegicus, UniProt P12527).
T2 construct: blood collection, heparinisation, challenge with A23187 and radioimmunoassay of LTB4 and TxB2; endogenous in cells
T2 sequence (P12527 1-673): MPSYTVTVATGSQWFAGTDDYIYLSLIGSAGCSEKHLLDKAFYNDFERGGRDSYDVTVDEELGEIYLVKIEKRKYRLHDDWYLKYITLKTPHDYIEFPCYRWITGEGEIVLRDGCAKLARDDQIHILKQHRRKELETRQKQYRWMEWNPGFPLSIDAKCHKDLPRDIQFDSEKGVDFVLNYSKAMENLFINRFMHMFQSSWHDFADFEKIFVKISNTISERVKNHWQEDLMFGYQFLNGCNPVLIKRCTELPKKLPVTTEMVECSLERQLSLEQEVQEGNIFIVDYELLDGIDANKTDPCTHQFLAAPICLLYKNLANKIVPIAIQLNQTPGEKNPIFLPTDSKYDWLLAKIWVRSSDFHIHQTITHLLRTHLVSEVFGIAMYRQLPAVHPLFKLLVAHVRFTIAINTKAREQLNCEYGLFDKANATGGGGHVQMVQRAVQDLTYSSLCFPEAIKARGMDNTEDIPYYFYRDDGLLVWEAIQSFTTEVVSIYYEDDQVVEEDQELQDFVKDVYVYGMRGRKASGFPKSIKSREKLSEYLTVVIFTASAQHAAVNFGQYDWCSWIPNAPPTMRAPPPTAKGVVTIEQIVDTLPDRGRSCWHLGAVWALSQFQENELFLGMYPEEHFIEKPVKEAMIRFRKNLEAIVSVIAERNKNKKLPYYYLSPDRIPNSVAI
Description: Test c) ex vivo assay, blood collected after oral administration, A23187 challenge, LTB4 radioimmunoassay. It is filed as in vivo.

The next experiment addresses T3, cyclooxygenase (Homo sapiens, UniProt P23219).
T3 construct: incubating a test compound with heparinised human blood; endogenous in cells; host or cells: blood cells (mainly platelets, own knowledge) in heparinised human whole blood
The experiment in a line: Test b) heparinised human blood challenged with A23187, TxB2 radioimmunoassay. It is filed as cell-based. The procedure: b) An in vitro assay system involving incubating a test compound with heparinised human blood, prior to challenge with the calcium ionophore A23187 and then indirectly measuring the inhibitory effects on 5-LO by assaying the amount of LTB4 using the specific radioimmunoassay described by Carey and Forder (F. Carey and R. A. Forder, Brit. J. Pharmacol. 1985, 84, 34P) which involves the use of a protein-LTB4 conjugate produced using the procedure of Young et alia (Prostaglandins, 1983, 26(4),605-613). The effects of a test compound on the enzyme cyclooxygenase (which is involved in the alternative metabolic pathway for arachidonic acid and gives rise to prostaglandins, thromboxanes and related metabolites) may be measured at the same time using the specific radioimmunoassay for thromboxane B2 (TxB2) described by Carey and Forder (see above). This test provides an indication of the effects of a test compound against 5-LO and also cyclooxygenase in the presence of blood cells and proteins. It permits the selectivity of the inhibitory effect on 5-LO or cyclooxygenase to be assessed.

Experiment [3] has as its target T4, 5-LO (Cavia porcellus, UniProt A0A286X958).
T4 construct: 5-LO isolated from guinea pig neutrophils; endogenous in cells; host or cells: guinea pig neutrophils (enzyme isolated, soluble, cell-free)
T4 sequence (A0A286X958 1-674): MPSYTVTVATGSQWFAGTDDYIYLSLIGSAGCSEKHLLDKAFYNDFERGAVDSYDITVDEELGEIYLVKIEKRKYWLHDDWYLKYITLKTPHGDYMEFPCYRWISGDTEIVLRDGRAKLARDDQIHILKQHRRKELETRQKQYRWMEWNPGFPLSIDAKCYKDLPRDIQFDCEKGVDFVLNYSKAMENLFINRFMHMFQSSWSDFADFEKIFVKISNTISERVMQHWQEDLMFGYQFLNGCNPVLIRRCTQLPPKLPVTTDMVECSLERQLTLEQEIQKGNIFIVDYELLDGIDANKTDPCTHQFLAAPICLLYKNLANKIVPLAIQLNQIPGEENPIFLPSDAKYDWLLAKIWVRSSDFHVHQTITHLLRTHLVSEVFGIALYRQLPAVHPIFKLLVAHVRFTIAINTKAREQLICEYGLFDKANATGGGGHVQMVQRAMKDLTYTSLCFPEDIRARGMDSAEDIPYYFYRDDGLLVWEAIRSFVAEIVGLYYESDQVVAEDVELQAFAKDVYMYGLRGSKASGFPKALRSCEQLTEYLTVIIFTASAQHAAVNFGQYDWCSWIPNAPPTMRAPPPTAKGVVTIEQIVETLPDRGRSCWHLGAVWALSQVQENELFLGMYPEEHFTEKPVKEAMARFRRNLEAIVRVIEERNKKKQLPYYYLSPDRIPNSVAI
Description: Test a) in vitro spectrophotometric cell free enzyme assay using 5-LO isolated from guinea pig neutrophils. Type of experiment: biochemical. From the text: a) An in vitro spectrophotometric enzyme assay system, which assesses the inhibitory properties of a test compound in a cell free system using 5-LO isolated from guinea pig neutrophils and as described by D.Aharony and R. L. Stein (J. Biol. Chem., 1986, 261(25), 11512-11519). This test provides a measure of the intrinsic inhibitory properties against soluble 5-LO in an extracellular environment.

Some results are limits rather than exact numbers.

Data on 2 molecules can be found in patent publication US5089513A, “5-lipoxygenase inhibitory thiazoles” (ICI Pharma, priority 1988, dated 1992).

T3 sequence (P23219 24-599): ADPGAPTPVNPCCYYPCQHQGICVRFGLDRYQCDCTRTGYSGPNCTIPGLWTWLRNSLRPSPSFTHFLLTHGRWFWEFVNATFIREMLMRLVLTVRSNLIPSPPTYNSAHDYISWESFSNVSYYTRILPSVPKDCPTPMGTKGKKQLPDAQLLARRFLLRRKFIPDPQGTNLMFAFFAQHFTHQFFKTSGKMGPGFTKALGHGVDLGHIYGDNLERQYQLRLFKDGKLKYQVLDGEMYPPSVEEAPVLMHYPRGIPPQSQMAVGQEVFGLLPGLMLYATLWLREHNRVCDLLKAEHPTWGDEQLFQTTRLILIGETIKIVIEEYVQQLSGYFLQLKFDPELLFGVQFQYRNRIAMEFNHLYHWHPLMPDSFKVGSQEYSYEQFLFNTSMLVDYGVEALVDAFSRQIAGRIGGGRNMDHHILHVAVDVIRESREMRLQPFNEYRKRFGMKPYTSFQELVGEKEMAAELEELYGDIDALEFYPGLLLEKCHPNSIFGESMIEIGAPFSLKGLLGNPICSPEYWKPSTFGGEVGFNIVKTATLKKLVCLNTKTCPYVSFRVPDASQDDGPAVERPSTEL

`CCC(OC)(c1cccc(OCC#Cc2ccc(F)cc2)c1)c1nccs1` (centres unmarked) [2-[1-[3-(3-(4-fluorophenyl)prop-2-ynyloxy)phenyl]-1-methoxypropyl]thiazole] showed an IC50 against 5-LO [1] of 40 nM. The molecule also yielded an ED50 on 5-LO [2] of 10 mg/kg.
Turning to `CCC(OC)(c1cccc(OCc2ccc3ccccc3c2)c1)c1nccs1` (centres unmarked) [2-[1-methoxy-1-[3-(naphth-2-ylmethoxy)phenyl]propyl]thiazole], the IC50 against cyclooxygenase is more than 100 µM; against 5-LO [3], 100 nM. In addition, on 5-LO [2], the ED50 worked out at 10 mg/kg.

In general, IC50 refers to the concentration that gives 50% inhibition. The low end stands for greater potency, the high end for weaker potency. For orientation: ED50 means the dose that gives a 50% effect, or the effect in half of the subjects.
